In patent US4255183A, “Substituted phenyl urea and herbicides for use in paddy field” (Hokko Chemical Industry Co., Ltd., priority 1977, dated 1981):
Where two headings read alike, the source gives them in different places.

Assays:
paddy rice [1] = experiment: whole plant or invertebrate; type: in vivo, paddy rice (Asahi species); details: for inhibition at 1000 g/ha / inhibition at 3000 g/ha / inhibition at 9000 g/ha: Oryza sativa, 720 h; for Inhibition (%) by treatment at 1-leaf stage of E. crus-galli var. oryzicola, paddy rice / Inhibition (%) by treatment at 5-leaf stage of E. crus-galli var. oryzicola, paddy rice: granule, 30 days; for Inhibition (%) by treatment at 1-leaf stage of E. crus-galli var. oryzicola, paddy rice: rice at 3.5 leaves stage; for Inhibition (%) by treatment at 5-leaf stage of E. crus-galli var. oryzicola, paddy rice: rice at 7 leaves stage
Procedure: (§1) In a Wagner pot of 1/500 are, paddy field soil (alluvial soil) was placed and 50 seeds of Echinochloa crus-galli var. oryzicola and 30 seeds of paddy rice were seeded in the surface layer of said soil and the submerging depth was kept at about 1 cm. When Echinochloa crus-galli var. oryzicola reached at the one leaf stage and 5-leaf stage, the emulsion of a predetermined concentration, prepared according to Example 4 was added dropwise. After 30 days from the treatment with the chemical, dry weights of Echinochloa crus-galli var. oryzicola and paddy rice were measured and the inhibition rate was calculated with reference to untreated area. [formula]
(§2) In a concrete pot of 1/400 are (50 cm×50 cm), paddy field soil (alluvial soil) was placed and 200 seeds of Echinochloa crus-galli var. oryzicola were seeded in 10 surface layer of said soil and the soil was submerged at about 3 cm depth. Before emergence of Echinochloa crus-galli var. oryzicola, paddy rice at 2.5-leaf stage (Asahi species) was transplanted at the rate of 8 stubs per pot, planting 3 seedlings per stub. At the one-leaf stage (3.5 leaves stage of paddy rice) and 5 leaves stage (7 leaves stage of paddy rice) of Echinochloa crus-galli var. oryzicola, the granule prepared according to Example 1 was applied. […] 30 Days after the treatment with the chemical, examination was made in the similar manner as Test Example 1 to obtain results as shown in Table 2.
(§3) In the table, as the comparative chemicals CPN, Benthiocarb, Molinate and Simetryne, those commercially available were used and the comparative chemicals A and B (as mentioned before) used were prepared according to the process for preparing the compound of this invention.

[2] = system: Echinochloa crus-galli var. oryzicola; experiment: Test Example 2: concrete pot test on killing effect, Echinochloa crus-galli var. oryzicola; type: in vivo; details: for inhibition at 1000 g/ha / inhibition at 3000 g/ha / inhibition at 9000 g/ha: Echinochloa crus-galli, 720 h; for Inhibition (%) by treatment at 1-leaf stage of E. crus-galli var. oryzicola, E. crus-galli var. oryzicola / Inhibition (%) by treatment at 5-leaf stage of E. crus-galli var. oryzicola, E. crus-galli var. oryzicola: granule, 30 days after treatment
Procedure: as §1, §2, §3

[3] = system: Echinochloa crus-galli var. oryzicola; experiment: Test Example 4: field test in submerged directly seeded paddy field, Echinochloa crus-galli var. oryzicola; type: in vivo; details: Echinochloa crus-galli, 504 h; 300 g/10 are, emulsion, 2- to 3-leaf stage, 21 days after application; read-out: Inhibition (%) of E. crus-galli var. oryzicola
Procedure: as §1
(§4) In a 10 m^2 paddy field, 30 g of Echinochloa crus-galli var. oryzicola seeds were seeded at the time of puddling and the depth of submerging was kept at 3-5 cm. 3 Days after the puddling, 50 g of paddy rice at the emergence stage (Asahi species) were seeded. When Echinochloa crus-galli var. oryzicola and paddy rice reached a 2- to 3-leaf stage, a predetermined dose of the emulsion prepared according to Example 4 was applied uniformly by means of a manual spraying machine. Test results were examined 21 days after the application of the chemicals in the similar manner as in Test Example 1.
(§5) The comparative chemical 1 used was that commercially available and the comparative chemical 2 used was prepared according to Example 4.

paddy rice [4] = experiment: Test Example 4: field test in submerged directly seeded paddy field, paddy rice; type: in vivo, paddy rice (Asahi species); details: Oryza sativa, 504 h; 300 g/10 are, emulsion, 2- to 3-leaf stage, 21 days after application
Procedure: as §1, §4, §5

Dopatrium junceum = experiment: Test Example 5: Wagner pot test, herbicidal effect on Dopatrium junceum; type: in vivo; details: 600 g/10a
Procedure: (§6) In a 1/7500 are Wagner pot, sieved paddy field soil (alluvial soil) was charged. Thereafter, in the center portion of the pot, 2 roots of paddy rice (Asahi species) at the 2- to 3-leaf stage were transplanted and 20 seeds of Bulrush per pot were seeded in the surface of the above soil. The pot was submerged at the depth of about 2 cm. The other Dopatrium junceum and umbrella plant were generated naturally. After seeding, when each of the weeds reached the same leaf age as defined in Table 5 given herein, a predetermined concentration of the emulsion prepared according to Example 4 was applied dropwise on the surface of the pot. The test was carried out by repeating the same test three times per area and the results were determined 20 days after the application of the chemicals with regard to the herbicidal effect and chemical injury on paddy rice on the basis of the evaluation index as shown below.
(§7) As the comparative chemicals Molinate, Benthiocarb and DCMU, those commercially available were used.
(§8) In the above table, the inhibition rate was calculated according to the method as described in Test Example 1.

Umbrella plant = experiment: Test Example 5: Wagner pot test, herbicidal effect on umbrella plant; type: in vivo; details: 600 g/10a, 20 days after application
Procedure: as §6, §7, §8

paddy rice [5] = experiment: Test Example 5: Wagner pot test, chemical injury on paddy rice; type: in vivo, paddy rice (Asahi species); details: 600 g/10a; further: key: 5: Completely killed; 4: Considerably injured; 3: Moderately injured; 2: A little injured; 1: Slightly injured; 0: Not injured
Procedure: as §6, §7

Bulrush = experiment: Test Example 5: Wagner pot test, herbicidal effect on Bulrush; type: in vivo; details: 600 g/10a
Procedure: as §6, §7, §8

[6] = system: Echinochloa crus-galli var. oryzicola; experiment: Test Example 1: pot test on selectivity, inhibition of Echinochloa crus-galli var. oryzicola; type: in vivo; details: dry weight 30 days after treatment
Procedure: as §1
(§9) The comparative chemicals used, i.e. DCMU and Linuron, were those commercially available, and the comparative chemicals A and B used were prepared according to the process for formulating the compound of this invention.

paddy rice [7] = experiment: Test Example 1: pot test on selectivity, inhibition of paddy rice; type: in vivo; details: dry weight 30 days after treatment
Procedure: as §1, with “When Echinochloa crus-galli var. oryzicola reached at the one leaf stage and 5-leaf stage, the emulsion of a predetermined concentration, prepared according to Example 4 was added dropwise.” left out
as §9

[8] = read-out: Inhibition (%) by treatment at 1-leaf stage of E. crus-galli var. oryzicola, paddy rice
[9] = read-out: Inhibition (%) by treatment at 5-leaf stage of E. crus-galli var. oryzicola, paddy rice
[10] = read-out: Inhibition (%) by treatment at 1-leaf stage of E. crus-galli var. oryzicola, E. crus-galli var. oryzicola
[11] = read-out: Inhibition (%) by treatment at 5-leaf stage of E. crus-galli var. oryzicola, E. crus-galli var. oryzicola
[12] = leaf age 3, 20 days after application

CCN(CC)C(=O)SCc1ccc(Cl)cc1 [Benthiocarb, 4-chlorobenzyl-N,N-diethylthiolcarbamate]
inhibition at 1000 g/ha (paddy rice [1]; [8]): 0%
inhibition at 3000 g/ha (paddy rice [1]; [8]): 10%
inhibition at 9000 g/ha (paddy rice [1]; [8]): 46%
inhibition at 1000 g/ha (paddy rice [1]; [9]): 0%
inhibition at 3000 g/ha (paddy rice [1]; [9]): 0%
inhibition at 9000 g/ha (paddy rice [1]; [9]): 10%
inhibition at 1000 g/ha [2, 10]: 82%
inhibition at 3000 g/ha [2, 10]: 100%
inhibition at 9000 g/ha [2, 10]: 100%
inhibition at 1000 g/ha [2, 11]: 0%
inhibition at 3000 g/ha [2, 11]: 6%
inhibition at 9000 g/ha [2, 11]: 23%
inhibition at 3000 g/ha [3]: 76%
inhibition at 3000 g/ha (paddy rice [4]): 15%
Weed kill degree, Dopatrium junceum (Dopatrium junceum; leaf age 2, 20 days after application): 5 (100)
Weed kill degree, Dopatrium junceum (Dopatrium junceum; [12]): 5 (100)
Weed kill degree, Umbrella plant (Umbrella plant; leaf age 2 (first group of columns)): 5 (100)
Weed kill degree, Umbrella plant (Umbrella plant; leaf age 2 (second group of columns)): 5 (100)
Chemical injury on paddy rice (paddy rice [5]; 3 tillers, 20 days after application): 0
Chemical injury on paddy rice (paddy rice [5]; [12]): 2
Weed kill degree, Bulrush (Bulrush; [12]): 2 (60-79)
Weed kill degree, Bulrush (Bulrush; leaf age 3-5, 20 days after application): 4 (90-99)

CNC(=O)Nc1ccc(OCC=C(C)Cl)cc1 [Comparative chemical B]
Inhibition (%) by treatment at 1-leaf stage of E. crus-galli var. oryzicola, paddy rice (paddy rice [1]; 100 g/10 are): 0%
Inhibition (%) by treatment at 5-leaf stage of E. crus-galli var. oryzicola, paddy rice (paddy rice [1]; 100 g/10 are): 0%
Inhibition (%) by treatment at 1-leaf stage of E. crus-galli var. oryzicola, paddy rice (paddy rice [1]; 300 g/10 are): 0%
Inhibition (%) by treatment at 5-leaf stage of E. crus-galli var. oryzicola, paddy rice (paddy rice [1]; 300 g/10 are): 0%
Inhibition (%) by treatment at 1-leaf stage of E. crus-galli var. oryzicola, paddy rice (paddy rice [1]; 900 g/10 are): 40%
Inhibition (%) by treatment at 5-leaf stage of E. crus-galli var. oryzicola, paddy rice (paddy rice [1]; 900 g/10 are): 7%
Inhibition (%) by treatment at 1-leaf stage, E. crus-galli var. oryzicola ([6]; 75 g/10 are): 10%
Inhibition (%) by treatment at 5-leaf stage, E. crus-galli var. oryzicola ([6]; 75 g/10 are): 0%
Inhibition (%) by treatment at 1-leaf stage, E. crus-galli var. oryzicola ([6]; 150 g/10 are): 35%
Inhibition (%) by treatment at 5-leaf stage, E. crus-galli var. oryzicola ([6]; 150 g/10 are): 0%
Inhibition (%) by treatment at 1-leaf stage, E. crus-galli var. oryzicola ([6]; 300 g/10 are): 80%
Inhibition (%) by treatment at 5-leaf stage, E. crus-galli var. oryzicola ([6]; 300 g/10 are): 7%
Inhibition (%) by treatment at 1-leaf stage, E. crus-galli var. oryzicola ([6]; 600 g/10 are): 100%
Inhibition (%) by treatment at 5-leaf stage, E. crus-galli var. oryzicola ([6]; 600 g/10 are): 12%
Inhibition (%) by treatment at 1-leaf stage, E. crus-galli var. oryzicola ([6]; 900 g/10 are): 100%
Inhibition (%) by treatment at 5-leaf stage, E. crus-galli var. oryzicola ([6]; 900 g/10 are): 36%
Inhibition (%) by treatment at 1-leaf stage, paddy rice (paddy rice [7]; 75 g/10 are): 0%
Inhibition (%) by treatment at 5-leaf stage, paddy rice (paddy rice [7]; 75 g/10 are): 0%
Inhibition (%) by treatment at 1-leaf stage, paddy rice (paddy rice [7]; 150 g/10 are): 0%
Inhibition (%) by treatment at 5-leaf stage, paddy rice (paddy rice [7]; 150 g/10 are): 0%
Inhibition (%) by treatment at 1-leaf stage, paddy rice (paddy rice [7]; 300 g/10 are): 36%
Inhibition (%) by treatment at 5-leaf stage, paddy rice (paddy rice [7]; 300 g/10 are): 0%
Inhibition (%) by treatment at 1-leaf stage, paddy rice (paddy rice [7]; 600 g/10 are): 60%
Inhibition (%) by treatment at 5-leaf stage, paddy rice (paddy rice [7]; 600 g/10 are): 7%
Inhibition (%) by treatment at 1-leaf stage, paddy rice (paddy rice [7]; 900 g/10 are): 72%
Inhibition (%) by treatment at 5-leaf stage, paddy rice (paddy rice [7]; 900 g/10 are): 26%
Inhibition (%) by treatment at 1-leaf stage of E. crus-galli var. oryzicola, E. crus-galli var. oryzicola ([2]; 100 g/10 are): 20%
Inhibition (%) by treatment at 5-leaf stage of E. crus-galli var. oryzicola, E. crus-galli var. oryzicola ([2]; 100 g/10 are): 0%
Inhibition (%) by treatment at 1-leaf stage of E. crus-galli var. oryzicola, E. crus-galli var. oryzicola ([2]; 300 g/10 are): 75%
Inhibition (%) by treatment at 5-leaf stage of E. crus-galli var. oryzicola, E. crus-galli var. oryzicola ([2]; 300 g/10 are): 0%
Inhibition (%) by treatment at 1-leaf stage of E. crus-galli var. oryzicola, E. crus-galli var. oryzicola ([2]; 900 g/10 are): 100%
Inhibition (%) by treatment at 5-leaf stage of E. crus-galli var. oryzicola, E. crus-galli var. oryzicola ([2]; 900 g/10 are): 30%
